Results reported in ChEMBL document CHEMBL4251572, “Novel aminopyrimidinyl benzimidazoles as potentially antimicrobial agents: Design, synthesis and biological evaluation” (Eur J Med Chem, 2018).
≈ marks a conversion by molar mass, not a printed value. Calls of active or inactive are those of the source. The rule behind the calls is not given here.

Tests used:
Staphylococcus aureus [1] = assay: Antibacterial activity against Staphylococcus aureus ATCC 25923 after 24 hrs by micro broth dilution assay; format: functional; settings: ATCC 25923, 24 h
Staphylococcus aureus [2] = assay: Antibacterial activity against methicillin-resistant Staphylococcus aureus N315 after 24 hrs by micro broth dilution assay; format: functional; settings: N315, 24 h
Bacillus subtilis = assay: Antibacterial activity against Bacillus subtilis after 24 hrs by micro broth dilution assay; format: functional
Micrococcus luteus = assay: Antibacterial activity against Micrococcus luteus ATCC4698 after 24 hrs by micro broth dilution assay; format: functional; settings: ATCC4698, 24 h
Bacillus = assay: Antibacterial activity against Bacillus proteus ATCC 13315 after 24 hrs by micro broth dilution assay; format: functional; settings: ATCC 13315, 24 h
Escherichia coli [3] = assay: Antibacterial activity against Escherichia coli DH52 after 24 hrs by micro broth dilution assay; format: functional; settings: DH52, 24 h
Pseudomonas aeruginosa [4] = assay: Antibacterial activity against Pseudomonas aeruginosa after 24 hrs by micro broth dilution assay; format: functional
Salmonella typhi = assay: Antibacterial activity against Bacillus typhi after 24 hrs by micro broth dilution assay; format: functional, Salmonella enterica subsp. enterica serovar Typhi; settings: Salmonella enterica
Escherichia coli [5] = assay: Antibacterial activity against Escherichia coli JM109 after 24 hrs by micro broth dilution assay; format: functional; settings: JM109, 24 h
Shigella dysenteriae = assay: Antibacterial activity against Shigella dysenteriae after 24 hrs by micro broth dilution assay; format: functional
Candida albicans = assay: Antifungal against Candida albicans ATCC 76615 after 24 hrs by two fold serial dilution method; format: functional; settings: ATCC 76615, 24 h
Pichia norvegensis = assay: Antifungal against Candida mycoderma after 24 hrs by two fold serial dilution method; format: functional
Cyberlindnera jadinii = assay: Antifungal against Candida utilis after 24 hrs by two fold serial dilution method; format: functional; settings: Williopsis jadinii
Saccharomyces cerevisiae = assay: Antifungal against Saccharomyces cerevisiae after 24 hrs by two fold serial dilution method; format: functional
Aspergillus flavus = assay: Antifungal against Aspergillus flavus after 24 hrs by two fold serial dilution method; format: functional
Staphylococcus aureus [6] = assay: Ratio of MBC for Staphylococcus aureus ATCC 25923 to MIC for Staphylococcus aureus ATCC 25923; format: functional
Pseudomonas aeruginosa [7] = assay: Ratio of MBC for Pseudomonas aeruginosa to MIC for Pseudomonas aeruginosa; format: functional
Staphylococcus aureus [8] = assay: Antibacterial activity against Staphylococcus aureus ATCC 25923 incubated for 24 hrs followed by plating onto tryptic soy agar medium and measured after 24 hrs; format: functional; settings: ATCC 25923, 24 h
Staphylococcus aureus [9] = assay: Antibacterial activity against methicillin-resistant Staphylococcus aureus N315 incubated for 24 hrs followed by plating onto tryptic soy agar medium and measured after 24 hrs; format: functional; settings: N315, 24 h
Pseudomonas aeruginosa [10] = assay: Antibacterial activity against Pseudomonas aeruginosa incubated for 24 hrs followed by plating onto tryptic soy agar medium and measured after 24 hrs; format: functional
Staphylococcus aureus [11] = assay: Ratio of MBC for methicillin-resistant Staphylococcus aureus N315 to MIC for methicillin-resistant Staphylococcus aureus N315; format: functional
Staphylococcus aureus [12] = assay: Antibacterial activity against methicillin-resistant Staphylococcus aureus N315 after 16 serial passages by two-fold serial dilution assay; format: functional, organism-based

Row | Structure (SMILES) | MIC (Staphylococcus aureus [1]) [µg/mL] | MIC (Staphylococcus aureus [2]) [µg/mL] | MIC (Bacillus subtilis) [µg/mL] | MIC (Micrococcus luteus) [µg/mL] | MIC (Bacillus) [µg/mL] | MIC (Escherichia coli [3]) [µg/mL] | MIC (Pseudomonas aeruginosa [4]) [µg/mL] | MIC (Salmonella typhi) [µg/mL] | MIC (Escherichia coli [5]) [µg/mL] | MIC (Shigella dysenteriae) [µg/mL] | MIC (Candida albicans) [µg/mL] | MIC (Pichia norvegensis) [µg/mL] | MIC (Cyberlindnera jadinii) [µg/mL] | MIC (Saccharomyces cerevisiae) [µg/mL] | MIC (Aspergillus flavus) [µg/mL] | Ratio (Staphylococcus aureus [6]) | MBC (Staphylococcus aureus [8]) [µg/mL] | MBC (Staphylococcus aureus [9]) [µg/mL] | MBC (Pseudomonas aeruginosa [10]) [µg/mL] | Ratio (Staphylococcus aureus [11]) | other results
1 | CCCCCCCn1c(-c2cc(-c3ccc(Cl)cc3Cl)nc(N)n2)nc2ccccc21 | 256 (≈ 563 µM) | 512 (≈ 1130 µM) | 256 (≈ 563 µM) | 16 (≈ 35.2 µM) | 512 (≈ 1130 µM) | 32 (≈ 70.4 µM) | 64 (≈ 141 µM) | 32 (≈ 70.4 µM) | 512 (≈ 1130 µM) | 128 (≈ 282 µM) | 4 (≈ 8.8 µM) | 256 (≈ 563 µM) | 128 (≈ 282 µM) | 128 (≈ 282 µM) | 256 (≈ 563 µM) | 2 | 512 (≈ 1130 µM) | > 512 | 128 (≈ 282 µM) | – | Ratio (Pseudomonas aeruginosa [7]): 2
2 | Nc1nc(-c2ccc(F)cc2)cc(-c2nc3ccccc3[nH]2)n1 | 2 (≈ 6.55 µM) | 128 (≈ 419 µM) | 2 (≈ 6.55 µM) | 32 (≈ 105 µM) | 128 (≈ 419 µM) | 128 (≈ 419 µM) | 16 (≈ 52.4 µM) | 8 (≈ 26.2 µM) | 128 (≈ 419 µM) | 16 (≈ 52.4 µM) | 8 (≈ 26.2 µM) | 256 (≈ 838 µM) | 128 (≈ 419 µM) | 64 (≈ 210 µM) | 256 (≈ 838 µM) | 1 | 2 (≈ 6.55 µM) | 512 (≈ 1680 µM) | 16 (≈ 52.4 µM) | 4 | Ratio (Pseudomonas aeruginosa [7]): 1
3 | Nc1nc(-c2ccc(Cl)cc2)cc(-c2nc3ccccc3[nH]2)n1 | 64 (≈ 199 µM) | 128 to 512 (≈ 398 to 1590 µM) | 64 (≈ 199 µM) | 64 (≈ 199 µM) | 8 (≈ 24.9 µM) | 128 (≈ 398 µM) | 128 (≈ 398 µM) | 512 (≈ 1590 µM) | 32 (≈ 99.4 µM) | 32 (≈ 99.4 µM) | 1 (≈ 3.11 µM) | 512 (≈ 1590 µM) | 2 (≈ 6.22 µM) | 512 (≈ 1590 µM) | 4 (≈ 12.4 µM) | 4 | 256 (≈ 796 µM) | 256 (≈ 796 µM) | 512 (≈ 1590 µM) | 2 | Ratio (Pseudomonas aeruginosa [7]): 4
4 | CCCCCCCn1c(-c2cc(-c3ccc(C)cc3)nc(N)n2)nc2ccccc21 | 512 (≈ 1280 µM) | 32 (≈ 80.1 µM) | 512 (≈ 1280 µM) | 8 (≈ 20 µM) | 256 (≈ 641 µM) | 4 (≈ 10 µM) | 4 (≈ 10 µM) | 2 (≈ 5.01 µM) | 16 (≈ 40 µM) | 4 (≈ 10 µM) | 32 (≈ 80.1 µM) | 512 (≈ 1280 µM) | 32 (≈ 80.1 µM) | 4 (≈ 10 µM) | 512 (≈ 1280 µM) | – | > 512 | 32 (≈ 80.1 µM) | 4 (≈ 10 µM) | 1 | Ratio (Pseudomonas aeruginosa [7]): 1
5 | CCCCn1c(-c2cc(-c3ccc(C)cc3)nc(N)n2)nc2ccccc21 | 8 (≈ 22.4 µM) | 16 (≈ 44.8 µM) | 16 (≈ 44.8 µM) | 16 (≈ 44.8 µM) | 16 (≈ 44.8 µM) | 32 (≈ 89.5 µM) | 8 (≈ 22.4 µM) | 32 (≈ 89.5 µM) | 16 (≈ 44.8 µM) | 16 (≈ 44.8 µM) | 128 (≈ 358 µM) | 8 (≈ 22.4 µM) | 4 (≈ 11.2 µM) | 32 (≈ 89.5 µM) | 64 (≈ 179 µM) | 4 | 32 (≈ 89.5 µM) | 16 (≈ 44.8 µM) | 16 (≈ 44.8 µM) | 1 | –
6 | CCCCn1c(-c2cc(-c3ccc(Cl)cc3)nc(N)n2)nc2ccccc21 | 16 (≈ 42.3 µM) | 32 (≈ 84.7 µM) | 64 (≈ 169 µM) | 64 (≈ 169 µM) | 4 (≈ 10.6 µM) | 128 (≈ 339 µM) | 64 (≈ 169 µM) | 8 (≈ 21.2 µM) | 64 (≈ 169 µM) | 256 (≈ 677 µM) | 64 (≈ 169 µM) | 4 (≈ 10.6 µM) | 2 (≈ 5.29 µM) | 128 (≈ 339 µM) | 256 (≈ 677 µM) | 1 | 16 (≈ 42.3 µM) | 64 (≈ 169 µM) | 512 (≈ 1350 µM) | 2 | Ratio (Pseudomonas aeruginosa [7]): 8
7 | CCn1cc(C(=O)O)c(=O)c2cc(F)c(N3CCNCC3)cc21 [NORFLOXACIN] | 8 (≈ 25.1 µM) | 1 (≈ 3.13 µM) | 2 (≈ 6.26 µM) | 1 (≈ 3.13 µM) | 4 (≈ 12.5 µM) | 1 (≈ 3.13 µM) | 1 (≈ 3.13 µM) | 1 (≈ 3.13 µM) | 1 (≈ 3.13 µM) | 16 (≈ 50.1 µM) | – | – | – | – | – | – | – | – | – | – | Activity (Staphylococcus aureus [12]): inactive
8 | Nc1nc(-c2nc3ccccc3[nH]2)cc(-c2ccc(Cl)cc2Cl)n1 | 8 (≈ 22.5 µM) | 8 (≈ 22.5 µM) | 8 (≈ 22.5 µM) | 1 (≈ 2.81 µM) | 1 (≈ 2.81 µM) | 16 (≈ 44.9 µM) | 32 (≈ 89.8 µM) | 16 (≈ 44.9 µM) | 64 (≈ 180 µM) | 16 (≈ 44.9 µM) | 1 (≈ 2.81 µM) | 2 (≈ 5.61 µM) | 2 (≈ 5.61 µM) | 8 (≈ 22.5 µM) | 8 (≈ 22.5 µM) | 1 | 8 (≈ 22.5 µM) | 16 (≈ 44.9 µM) | 64 (≈ 180 µM) | 2 | Ratio (Pseudomonas aeruginosa [7]): 2
9 | CCCCCCn1c(-c2cc(-c3ccc(Cl)cc3)nc(N)n2)nc2ccccc21 | 256 (≈ 631 µM) | 32 (≈ 78.8 µM) | 128 (≈ 315 µM) | 2 (≈ 4.93 µM) | 256 (≈ 631 µM) | 2 (≈ 4.93 µM) | 512 (≈ 1260 µM) | 128 (≈ 315 µM) | 16 (≈ 39.4 µM) | 64 (≈ 158 µM) | 4 (≈ 9.85 µM) | 8 (≈ 19.7 µM) | 8 (≈ 19.7 µM) | 512 (≈ 1260 µM) | 32 (≈ 78.8 µM) | 2 | 512 (≈ 1260 µM) | 32 (≈ 78.8 µM) | > 512 | 1 | –
